Data: patent publication US8337916B2, “Use of Aphanamixis polystacha extracts or fractions against 5-lipoxygenase mediated diseases” (Laila Nutraceuticals, priority 2007, dated 2012)

Columns and labels:
[1] = Superoxide radical scavenging activity (NBT method, McCord and Fridovich); format: biochemical; conditions: riboflavin/NBT, phosphate buffer pH 7.8, 560 nm
Method: Superoxide radical scavenging activity of test substances was determined by the method of McCord and Fridovich. […] The tubes were mixed well and optical densities were measured at 560 nm. The tubes were uniformly illuminated with an incandescent lamp for 15 min. and the optical densities were measured again at 560 nm. The percentage inhibition of superoxide radical generation was measured by comparing the absorbance values of control and those of the test substances. The IC50 values were obtained from the plot drawn of the concentration (μg) verses percentage inhibition.

[2] = DPPH free radical scavenging activity (method of Lamaison et al.); format: physicochemical; conditions: methanolic DPPH, 517 nm
paw edema = assay: Freund complete adjuvant induced arthritis model, paw edema; format: in vivo, Sprague Dawley rats; conditions: prednisolone 10 mg/kg body weight for 14 days; paw volume 13 days after FCA; vs CMC control
Method: The anti-oxidant and anti-inflammatory efficacies of Aphanamixis polystachya extract or fractions were evaluated by an in vivo study in Freund complete adjuvant induced arthritis model of Sprague Dawley rats. The rats of either sex were randomly selected and divided into three groups containing four animals in each group. Rats were supplemented with 50 mg/kg body weight of A. polystachya extract, or prednisolone (10 mg/kg body weight) for 14 days. The animals of control group received only the same volume of 1% Na CMC. At the 14 th day, Freund complete adjuvant (FCA) was injected subcutaneously in the sub-plantar region of the left hind paw of each animal. At the end of experiment, the animals were sacrificed and liver tissue samples were excised and stored in aliquot at −80° C. Blood samples were collected from each animal at a regular interval and paw volumes were measured by Plethysmography equipment after 13 days of FCA inoculation. The difference in volume of edema at the day of FCA injection and at 13th day after induction is considered as the inflammatory response. The in vivo anti-inflammatory response of A. polystachya was estimated by calculating, the percentage of inhibition of paw edema when compared with the CMC supplemented control rats and was compared with that of the positive control group supplemented with prednisolone as shown in FIG. 1.

| NBT method IC50 (superoxide radical scavenging) [1] | DPPH method IC50 [2] | Structure (SMILES) | inhibition in paw edema (paw edema) |
| --- | --- | --- | --- |
| 150 µg/mL | 4.1 µg/mL | O=C1O[C@H]([C@@H](O)CO)C(O)=C1O [Vitamin C] | – |
| – | – | C[C@]12C=CC(=O)C=C1CC[C@@H]1[C@@H]2[C@@H](O)C[C@@]2(C)[C@H]1CC[C@]2(O)C(=O)CO [prednisolone] | 47.4% |
